From ChEMBL document CHEMBL1158779, “Sulfur-containing polybromoindoles from the Formosan red alga Laurencia brongniartii” (J Nat Prod, 2005)
Calls of active or inactive are those of the source. No cut-off for these calls is given here.

How the values were obtained:
HT-29 = experiment: Cytotoxicity against human HT-29 cells; assay type: functional, cell-based
P388 = experiment: Cytotoxicity against mouse P388 cells; assay type: functional, cell-based

SMILES	Activity (HT-29)	Activity (P388)
CSc1[nH]c2cc(Br)cc(Br)c2c1SC	inactive	inactive
C[S+]([O-])c1[nH]c2cc(Br)cc(Br)c2c1[S+](C)[O-] (centres undefined)	inactive	inactive
CSc1c([S+](C)[O-])[nH]c2cc(Br)c(Br)c(Br)c12 (centres undefined)	inactive	inactive
C[S+]([O-])c1c(Br)[nH]c2cc(Br)cc(Br)c12 (centres undefined)	inactive	inactive
CSc1[nH]c2cc(Br)cc(Br)c2c1-c1c(SC)[nH]c2cc(Br)cc(Br)c12	inactive	inactive
CSc1cc2c(Br)cc(Br)cc2[nH]1	inactive	inactive
CSc1[nH]c2cc(Br)c(Br)c(Br)c2c1SC	inactive	inactive
C[S+]([O-])c1[nH]c2cc(Br)cc(Br)c2c1-c1c([S+](C)[O-])[nH]c2cc(Br)cc(Br)c12 (centres undefined)	inactive	Active
CSc1c(Br)[nH]c2cc(Br)c(Br)c(Br)c12	inactive	inactive
CSc1c([S+](C)[O-])[nH]c2cc(Br)cc(Br)c12 (centres undefined)	inactive	inactive
CSc1[nH]c2cc(Br)cc(Br)c2c1-c1c([S+](C)[O-])[nH]c2cc(Br)cc(Br)c12 (centres undefined)	Active	Active
CSc1c(Br)[nH]c2cc(Br)cc(Br)c12	inactive	inactive
